Experimental data reported in ChEMBL document CHEMBL3885881, “DrugMatrix”.

Species: Rattus norvegicus
Experiment: DrugMatrix - Regimen: Daily Repeat
Format: toxicity, organism-based, Sprague-Dawley
Set-up: regimen Daily Repeat, gender Male, age 6-8 weeks
Details: in vivo, iv, 55 mg/kg, dose level Low, vehicle 100 % SALINE
[1] = 72 h, tissue Plasma, time 3 day
[2] = 120 h, tissue Blood, time 5 day
[3] = 120 h, tissue Plasma, time 5 day

Sequence: GADOPENTETATE DIMEGLUMINE
- ABSOLUTE BASOPHIL (72 h, tissue Blood, time 3 day): 0 CELLS/uL
- ABSOLUTE EOSINOPHIL (72 h, tissue Blood, time 3 day): 43.67 CELLS/uL
- ABSOLUTE LYMPHOCYTE (72 h, tissue Blood, time 3 day): 9839.33 CELLS/uL
- ABSOLUTE MONOCYTE (72 h, tissue Blood, time 3 day): 219.67 CELLS/uL
- ABSOLUTE SEGMENTED NEUTROPHIL (72 h, tissue Blood, time 3 day): 564 CELLS/uL
- BASOPHIL (72 h, tissue Blood, time 3 day): 0%
- EOSINOPHIL (72 h, tissue Blood, time 3 day): 0.33%
- ERYTHROCYTE COUNT (72 h, tissue Blood, time 3 day): 5.53 x10E6/uL
- HEMOGLOBIN (72 h, tissue Blood, time 3 day): 13.6 G/DL
- LEUKOCYTE COUNT (72 h, tissue Blood, time 3 day): 10.67 x10E3/uL
- LYMPHOCYTE (72 h, tissue Blood, time 3 day): 92.67%
- MEAN CORPUSCULAR HEMOGLOBIN (72 h, tissue Blood, time 3 day): 24.63 pg
- MEAN CORPUSCULAR HEMOGLOBIN CONCENTRATION (72 h, tissue Blood, time 3 day): 37.3 G/DL
- MEAN CORPUSCULAR VOLUME (72 h, tissue Blood, time 3 day): 66.07 fL
- MONOCYTE (72 h, tissue Blood, time 3 day): 2%
- NEUTROPHIL (72 h, tissue Blood, time 3 day): 5%
- NUCLEATED RED BLOOD CELLS (72 h, tissue Blood, time 3 day): 0 /100WBC
- PLATELET COUNT (72 h, tissue Blood, time 3 day): 1301 x10E3/uL
- ALANINE AMINOTRANSFERASE [1]: 40 u/L
- ALKALINE PHOSPHATASE [1]: 398.33 u/L
- ASPARTATE AMINOTRANSFERASE [1]: 87.67 u/L
- CARBON DIOXIDE [1]: 23.33 mmol/L
- CHOLESTEROL [1]: 81.33 mg/dL
- CREATINE PHOSPHOKINASE [1]: 415.67 u/L
- CREATININE [1]: 0.21 mg/dL
- LACTATE DEHYDROGENASE [1]: 589.67 u/L
- POTASSIUM [1]: 6.91 MEQ/L
- SODIUM [1]: 145.83 MEQ/L
- TOTAL BILIRUBIN [1]: 0.2 mg/dL
- TOTAL PROTEIN [1]: 6.1 G/DL
- ABSOLUTE BASOPHIL [2]: 0 CELLS/uL
- ABSOLUTE EOSINOPHIL [2]: 278.33 CELLS/uL
- ABSOLUTE LYMPHOCYTE [2]: 15424.33 CELLS/uL
- ABSOLUTE MONOCYTE [2]: 421.67 CELLS/uL
- ABSOLUTE SEGMENTED NEUTROPHIL [2]: 1375.67 CELLS/uL
- BASOPHIL [2]: 0%
- ERYTHROCYTE COUNT [2]: 5.85 x10E6/uL
- HEMATOCRIT [2]: 36.97%
- HEMOGLOBIN [2]: 14.03 G/DL
- LEUKOCYTE COUNT [2]: 17.5 x10E3/uL
- LYMPHOCYTE [2]: 88%
- MEAN CORPUSCULAR HEMOGLOBIN [2]: 24.07 pg
- MEAN CORPUSCULAR HEMOGLOBIN CONCENTRATION [2]: 37.97 G/DL
- NEUTROPHIL [2]: 8%
- NUCLEATED RED BLOOD CELLS [2]: 0 /100WBC
- PLATELET COUNT [2]: 1344.67 x10E3/uL
- ALANINE AMINOTRANSFERASE [3]: 53.33 u/L
- ALBUMIN [3]: 4.2 G/DL
- ALKALINE PHOSPHATASE [3]: 358.67 u/L
- ASPARTATE AMINOTRANSFERASE [3]: 83 u/L
- BLOOD UREA NITROGEN [3]: 16.67 mg/dL
- CARBON DIOXIDE [3]: 26.33 mmol/L
- CHLORIDE [3]: 106.67 MEQ/L
- CHOLESTEROL [3]: 68 mg/dL
- CREATINE PHOSPHOKINASE [3]: 219.67 u/L
- CREATININE [3]: 0.19 mg/dL
- GLUCOSE [3]: 172 mg/dL
- LACTATE DEHYDROGENASE [3]: 98 u/L
- LIPASE [3]: 10 u/L
- PHOSPHORUS [3]: 12.93 mg/dL
- POTASSIUM [3]: 6.64 MEQ/L
- SODIUM [3]: 146.2 MEQ/L
- TOTAL BILIRUBIN [3]: 0.2 mg/dL
- TOTAL PROTEIN [3]: 6.13 G/DL
- URIC ACID [3]: 2.37 mg/dL
